# Source: patent US20240092835A1, “NOVEL PEPTIDES CAPABLE OF ALTERING NK CELL ACTIVITY” (Massachusetts Institute of Technology, priority 2022, published 2024)
# Assays:
# NKG2A−/NKG2C+ NK cells = assay: NK cell activation markers in NKG2A-/NKG2C+ NK cells incubated with peptide and K562 expressing HLA-E (activation); type: cell-based, human; conditions: for effect on NKG2A−/NKG2C+ NK cell activation (in words): K562 expressing HLA-E, CD107a, IFNG, TNF, CCL3; for percentage of CCL3+ NK cells / percentage of CD107+ NK cells / percentage of IFNG+ NK cells / percentage of TNF+ NK cells: NKG2A-/NKG2C+ NK cells, K562/HLA-E
# Summary of the method: (§1)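 Human myelogenous leukemia K562 cells displaying HLA-E carry the test peptides (human or HCMV origin) and are presented to NK cells; surface activation markers are scored by percent positive cells.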
# HLA-E = target: T1, HLA-E (Homo sapiens, UniProt P13747); assay: HLA-E surface stabilization assay with RMA-S/HLA-E cells; type: cell-based; conditions: 30 μM peptide, 16 hours, anti-HLA-E antibody
# T1 construct: expressed in transfected cells; host or cells: RMA-S/HLA-E cells (antigen processing-defective lymphoma cell line)
# Experimental: HLA-E surface expression was assessed by measuring geometric mean fluorescence intensity (GeoMFI) in RMA-S cells following immunofluorescence staining with an anti-HLA-E antibody (Table 14). Increased GeoMFI was indicative of increased HLA-E surface expression stability following novel peptide exposures (FIG. 3).
# NKG2A+/NKG2C− NK cells = assay: NK cell activation markers in NKG2A+/NKG2C- NK cells incubated with peptide and K562 expressing HLA-E (inhibition); type: cell-based, human; conditions: for effect on NKG2A+/NKG2C− NK cell inhibition (in words): K562 expressing HLA-E, CD107a, IFNG, TNF, CCL3; for percentage of CCL3+ NK cells / percentage of CD107a+ NK cells / percentage of IFNG+ NK cells / percentage of TNF+ NK cells: NKG2A+/NKG2C- NK cells, K562/HLA-E
# Summary of the method: as §1
# NKG2A−/NKG2C− NK cells = assay: NK cell activation markers in control NKG2A-/NKG2C- NK cells incubated with peptide and K562 expressing HLA-E; type: cell-based, human
# Summary of the method: as §1
# T1 sequence (P13747 22-358): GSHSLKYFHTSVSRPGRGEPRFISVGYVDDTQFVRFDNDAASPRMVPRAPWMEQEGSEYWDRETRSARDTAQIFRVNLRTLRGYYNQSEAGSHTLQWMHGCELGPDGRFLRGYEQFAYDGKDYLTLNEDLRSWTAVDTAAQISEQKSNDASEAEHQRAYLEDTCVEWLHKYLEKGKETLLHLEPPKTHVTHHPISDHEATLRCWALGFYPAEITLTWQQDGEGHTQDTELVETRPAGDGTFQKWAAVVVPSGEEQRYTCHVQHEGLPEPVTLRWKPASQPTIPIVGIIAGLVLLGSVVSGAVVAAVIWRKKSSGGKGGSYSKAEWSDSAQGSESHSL
# T1 sequence (P61769 21-119 partner): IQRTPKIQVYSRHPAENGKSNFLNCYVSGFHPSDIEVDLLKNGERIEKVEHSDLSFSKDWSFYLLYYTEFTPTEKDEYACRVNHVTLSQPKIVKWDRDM
sequence,measurement,setting,value
RMPPRSVLL [human12],effect on NKG2A−/NKG2C+ NK cell activation (in words),NKG2A−/NKG2C+ NK cells; listed as SEQ ID NO. 13,strong activating effects
same,effect on NKG2A−/NKG2C+ NK cell activation (in words),NKG2A−/NKG2C+ NK cells; listed as h12,strong inhibitory and activating effects
same,percentage of CCL3+ NK cells,NKG2A−/NKG2C+ NK cells; Trial 1,55.3%
same,percentage of CD107+ NK cells,NKG2A−/NKG2C+ NK cells; Trial 1,36.5%
same,percentage of IFNG+ NK cells,NKG2A−/NKG2C+ NK cells; Trial 1,20.7%
same,percentage of TNF+ NK cells,NKG2A−/NKG2C+ NK cells; Trial 1,12.6%
same,percentage of CCL3+ NK cells,NKG2A−/NKG2C+ NK cells; Trial 2,83.9%
same,percentage of CD107+ NK cells,NKG2A−/NKG2C+ NK cells; Trial 2,77%
same,percentage of IFNG+ NK cells,NKG2A−/NKG2C+ NK cells; Trial 2,63.3%
same,percentage of TNF+ NK cells,NKG2A−/NKG2C+ NK cells; Trial 2,52.7%
same,percentage of CCL3+ NK cells,NKG2A−/NKG2C+ NK cells; Trial 3,81.7%
same,percentage of CD107+ NK cells,NKG2A−/NKG2C+ NK cells; Trial 3,80.3%
same,percentage of IFNG+ NK cells,NKG2A−/NKG2C+ NK cells; Trial 3,66.3%
same,percentage of TNF+ NK cells,NKG2A−/NKG2C+ NK cells; Trial 3,59.6%
same,HLA-E surface expression stability (GeoMFI),HLA-E; Trial 1,3779 GeoMFI
same,HLA-E surface expression stability (GeoMFI),HLA-E; Trial 2,4219 GeoMFI
same,HLA-E surface expression stability (GeoMFI),HLA-E; Trial 3,4273 GeoMFI
same,HLA-E surface expression stability (GeoMFI),HLA-E; Trial 4,4705 GeoMFI
same,effect on NKG2A+/NKG2C− NK cell inhibition (in words),NKG2A+/NKG2C− NK cells,strong inhibitory
same,percentage of CCL3+ NK cells,NKG2A+/NKG2C− NK cells; Trial 1,1.94%
same,percentage of CD107a+ NK cells,NKG2A+/NKG2C− NK cells; Trial 1,0.85%
same,percentage of IFNG+ NK cells,NKG2A+/NKG2C− NK cells; Trial 1,0.14%
same,percentage of TNF+ NK cells,NKG2A+/NKG2C− NK cells; Trial 1,0.03%
same,percentage of CCL3+ NK cells,NKG2A+/NKG2C− NK cells; Trial 2,2.96%
same,percentage of CD107a+ NK cells,NKG2A+/NKG2C− NK cells; Trial 2,0.99%
same,percentage of IFNG+ NK cells,NKG2A+/NKG2C− NK cells; Trial 2,0.32%
same,percentage of TNF+ NK cells,NKG2A+/NKG2C− NK cells; Trial 2,0.17%
same,percentage of CCL3+ NK cells,NKG2A+/NKG2C− NK cells; Trial 3,2.9%
same,percentage of CD107a+ NK cells,NKG2A+/NKG2C− NK cells; Trial 3,1.25%
same,percentage of IFNG+ NK cells,NKG2A+/NKG2C− NK cells; Trial 3,0.65%
same,percentage of TNF+ NK cells,NKG2A+/NKG2C− NK cells; Trial 3,0.45%
same,percentage CCL3+ NK cells,NKG2A−/NKG2C− NK cells; Trial 1,29.3%
same,percentage CD107+ NK cells,NKG2A−/NKG2C− NK cells; Trial 1,20.2%
same,percentage TNF+ NK cells,NKG2A−/NKG2C− NK cells; Trial 1,3.43%
same,percentage of IFNG+ NK cells,NKG2A−/NKG2C− NK cells; Trial 1,10.2%
same,percentage CCL3+ NK cells,NKG2A−/NKG2C− NK cells; Trial 2,51.6%
same,percentage CD107+ NK cells,NKG2A−/NKG2C− NK cells; Trial 2,29%
same,percentage TNF+ NK cells,NKG2A−/NKG2C− NK cells; Trial 2,9.58%
same,percentage of IFNG+ NK cells,NKG2A−/NKG2C− NK cells; Trial 2,24%
same,percentage CCL3+ NK cells,NKG2A−/NKG2C− NK cells; Trial 3,46.5%
same,percentage CD107+ NK cells,NKG2A−/NKG2C− NK cells; Trial 3,42%
same,percentage TNF+ NK cells,NKG2A−/NKG2C− NK cells; Trial 3,15.5%
same,percentage of IFNG+ NK cells,NKG2A−/NKG2C− NK cells; Trial 3,36.2%
"VMPPRTLLL [human15, peptide HLA-A 3-11 derived from the human proteome]",effect on NKG2A−/NKG2C+ NK cell activation (in words),NKG2A−/NKG2C+ NK cells; listed as SEQ ID NO. 14,strong activating effects
same,effect on NKG2A−/NKG2C+ NK cell activation (in words),NKG2A−/NKG2C+ NK cells; listed as h15,strong inhibitory and activating effects
same,percentage of CCL3+ NK cells,NKG2A−/NKG2C+ NK cells; Trial 1,79.5%
same,percentage of CD107+ NK cells,NKG2A−/NKG2C+ NK cells; Trial 1,78.4%
same,percentage of IFNG+ NK cells,NKG2A−/NKG2C+ NK cells; Trial 1,66.7%
same,percentage of TNF+ NK cells,NKG2A−/NKG2C+ NK cells; Trial 1,52.1%
same,percentage of CCL3+ NK cells,NKG2A−/NKG2C+ NK cells; Trial 2,89.7%
same,percentage of CD107+ NK cells,NKG2A−/NKG2C+ NK cells; Trial 2,86%
same,percentage of IFNG+ NK cells,NKG2A−/NKG2C+ NK cells; Trial 2,79.9%
same,percentage of TNF+ NK cells,NKG2A−/NKG2C+ NK cells; Trial 2,71.8%
same,percentage of CCL3+ NK cells,NKG2A−/NKG2C+ NK cells; Trial 3,86.8%
same,percentage of CD107+ NK cells,NKG2A−/NKG2C+ NK cells; Trial 3,88.2%
same,percentage of IFNG+ NK cells,NKG2A−/NKG2C+ NK cells; Trial 3,78.8%
same,percentage of TNF+ NK cells,NKG2A−/NKG2C+ NK cells; Trial 3,68.2%
same,percentage of CCL3+ NK cells,NKG2A−/NKG2C+ NK cells; Trial 4,69%
same,percentage of CD107+ NK cells,NKG2A−/NKG2C+ NK cells; Trial 4,68.9%
same,percentage of IFNG+ NK cells,NKG2A−/NKG2C+ NK cells; Trial 4,60.9%
same,percentage of TNF+ NK cells,NKG2A−/NKG2C+ NK cells; Trial 4,52.6%
same,percentage of CCL3+ NK cells,NKG2A−/NKG2C+ NK cells; Trial 5,78.9%
same,percentage of CD107+ NK cells,NKG2A−/NKG2C+ NK cells; Trial 5,78%
same,percentage of IFNG+ NK cells,NKG2A−/NKG2C+ NK cells; Trial 5,71.9%
same,percentage of TNF+ NK cells,NKG2A−/NKG2C+ NK cells; Trial 5,66.6%
same,percentage of CCL3+ NK cells,NKG2A−/NKG2C+ NK cells; Trial 6,58.4%
same,percentage of CD107+ NK cells,NKG2A−/NKG2C+ NK cells; Trial 6,56.2%
same,percentage of IFNG+ NK cells,NKG2A−/NKG2C+ NK cells; Trial 6,44.1%
same,percentage of TNF+ NK cells,NKG2A−/NKG2C+ NK cells; Trial 6,36.3%
same,HLA-E surface expression stability (GeoMFI),HLA-E; Trial 1,3783 GeoMFI
same,HLA-E surface expression stability (GeoMFI),HLA-E; Trial 2,4068 GeoMFI
same,HLA-E surface expression stability (GeoMFI),HLA-E; Trial 3,4205 GeoMFI
same,HLA-E surface expression stability (GeoMFI),HLA-E; Trial 4,4760 GeoMFI
same,effect on NKG2A+/NKG2C− NK cell inhibition (in words),NKG2A+/NKG2C− NK cells,strong inhibitory
same,percentage of CCL3+ NK cells,NKG2A+/NKG2C− NK cells; Trial 1,1.79%
same,percentage of CD107a+ NK cells,NKG2A+/NKG2C− NK cells; Trial 1,0.49%
same,percentage of IFNG+ NK cells,NKG2A+/NKG2C− NK cells; Trial 1,0.05%
same,percentage of TNF+ NK cells,NKG2A+/NKG2C− NK cells; Trial 1,0.01%
same,percentage of CCL3+ NK cells,NKG2A+/NKG2C− NK cells; Trial 2,1.6%
same,percentage of CD107a+ NK cells,NKG2A+/NKG2C− NK cells; Trial 2,0.79%
same,percentage of IFNG+ NK cells,NKG2A+/NKG2C− NK cells; Trial 2,0.3%
same,percentage of TNF+ NK cells,NKG2A+/NKG2C− NK cells; Trial 2,0.27%
same,percentage of CCL3+ NK cells,NKG2A+/NKG2C− NK cells; Trial 3,1.12%
same,percentage of CD107a+ NK cells,NKG2A+/NKG2C− NK cells; Trial 3,0.73%
same,percentage of IFNG+ NK cells,NKG2A+/NKG2C− NK cells; Trial 3,0.44%
same,percentage of TNF+ NK cells,NKG2A+/NKG2C− NK cells; Trial 3,0.19%
same,percentage of CCL3+ NK cells,NKG2A+/NKG2C− NK cells; Trial 4,0.75%
same,percentage of CD107a+ NK cells,NKG2A+/NKG2C− NK cells; Trial 4,0.75%
same,percentage of IFNG+ NK cells,NKG2A+/NKG2C− NK cells; Trial 4,0.2%
same,percentage of TNF+ NK cells,NKG2A+/NKG2C− NK cells; Trial 4,0.18%
same,percentage of CCL3+ NK cells,NKG2A+/NKG2C− NK cells; Trial 5,3.7%
same,percentage of CD107a+ NK cells,NKG2A+/NKG2C− NK cells; Trial 5,1.04%
same,percentage of IFNG+ NK cells,NKG2A+/NKG2C− NK cells; Trial 5,0.19%
same,percentage of TNF+ NK cells,NKG2A+/NKG2C− NK cells; Trial 5,0.16%
same,percentage of CCL3+ NK cells,NKG2A+/NKG2C− NK cells; Trial 6,2.09%
same,percentage of CD107a+ NK cells,NKG2A+/NKG2C− NK cells; Trial 6,0.52%
same,percentage of IFNG+ NK cells,NKG2A+/NKG2C− NK cells; Trial 6,0.24%
same,percentage of TNF+ NK cells,NKG2A+/NKG2C− NK cells; Trial 6,0.05%
same,percentage CCL3+ NK cells,NKG2A−/NKG2C− NK cells; Trial 1,34%
same,percentage CD107+ NK cells,NKG2A−/NKG2C− NK cells; Trial 1,25.7%
same,percentage TNF+ NK cells,NKG2A−/NKG2C− NK cells; Trial 1,3.42%
same,percentage of IFNG+ NK cells,NKG2A−/NKG2C− NK cells; Trial 1,15.5%
same,percentage CCL3+ NK cells,NKG2A−/NKG2C− NK cells; Trial 2,55.5%
same,percentage CD107+ NK cells,NKG2A−/NKG2C− NK cells; Trial 2,34.1%
same,percentage TNF+ NK cells,NKG2A−/NKG2C− NK cells; Trial 2,9.68%
same,percentage of IFNG+ NK cells,NKG2A−/NKG2C− NK cells; Trial 2,25.4%
same,percentage CCL3+ NK cells,NKG2A−/NKG2C− NK cells; Trial 3,46.7%
same,percentage CD107+ NK cells,NKG2A−/NKG2C− NK cells; Trial 3,43.7%
same,percentage TNF+ NK cells,NKG2A−/NKG2C− NK cells; Trial 3,14.8%
same,percentage of IFNG+ NK cells,NKG2A−/NKG2C− NK cells; Trial 3,34.7%
same,percentage CCL3+ NK cells,NKG2A−/NKG2C− NK cells; Trial 4,34.3%
same,percentage CD107+ NK cells,NKG2A−/NKG2C− NK cells; Trial 4,29.6%
same,percentage TNF+ NK cells,NKG2A−/NKG2C− NK cells; Trial 4,10.3%
same,percentage of IFNG+ NK cells,NKG2A−/NKG2C− NK cells; Trial 4,20.3%
same,percentage CCL3+ NK cells,NKG2A−/NKG2C− NK cells; Trial 5,24.7%
same,percentage CD107+ NK cells,NKG2A−/NKG2C− NK cells; Trial 5,18.9%
same,percentage TNF+ NK cells,NKG2A−/NKG2C− NK cells; Trial 5,6.97%
same,percentage of IFNG+ NK cells,NKG2A−/NKG2C− NK cells; Trial 5,14.7%
same,percentage CCL3+ NK cells,NKG2A−/NKG2C− NK cells; Trial 6,26.4%
same,percentage CD107+ NK cells,NKG2A−/NKG2C− NK cells; Trial 6,21.1%
same,percentage TNF+ NK cells,NKG2A−/NKG2C− NK cells; Trial 6,5.43%
same,percentage of IFNG+ NK cells,NKG2A−/NKG2C− NK cells; Trial 6,11.9%
